Values of other authors in patent publication US20250283177A1, “BIOMARKERS AND METHODS OF USE THEREOF FOR TREATMENT OF PERIPHERAL T-CELL LYMPHOMA” (BOARD OF REGENTS OF THE UNIVERSITY OF NEBRASKA, priority 2022, published 2025).
Read-outs that look alike come from different tables or passages of the source.

How the values were obtained:
[1] = tested on: peripheral T-cell lymphoma (PTCL); conditions: for Overall response rate by common subtype: Phase II studies

Row | Molecule | Overall response rate by common subtype ([1]; subtype AITL) [%] | Overall response rate by common subtype ([1]; subtype ALCL) [%] | Overall response rate by common subtype ([1]; subtype PTCL-NOS) [%] | Responsiveness to therapy ([1]; ALK(−) ALCL) | Benefit in PTCL subgroup (subgroups of PTCL; CD30+ PTCL, particularly ALCL) | Benefit in PTCL subgroup (subgroups of PTCL; ALK+ALCL) | Benefit in PTCL subgroup (subgroups of PTCL; ATLL)
1 | O=C(/C=C/c1cccc(S(=O)(=O)Nc2ccccc2)c1)NO [Belinostat] | 46 | 15 | 23 |  |  |  | 
2 | C#CCC(Cc1cnc2nc(N)nc(N)c2n1)c1ccc(C(=O)N[C@@H](CCC(=O)O)C(=O)O)cc1 (stereo partly shown) [Pralatrexate] | 8 | 29 | 31 |  |  |  | 
3 | Brentuximab vedotin | 54 | 86 | 33 | highly responsive | striking benefits |  | 
4 | C[C@@H](Oc1cc(-c2cnn(C3CCNCC3)c2)cnc1N)c1c(Cl)ccc(F)c1Cl [Crizotinib] |  |  |  |  |  | striking benefits | 
5 | mogamulizumab (antibody, chains of the INN, looked up, V domains shown) VH: EVQLVESGGDLVQPGRSLRLSCAASGFIFSNYGMSWVRQAPGKGLEWVATISSASTYSYYPDSVKGRFTISRDNAKNSLYLQMNSLRVEDTALYYCGRHSDGNFAFGYWGQGTLVTVSS VL: DVLMTQSPLSLPVTPGEPASISCRSSRNIVHINGDTYLEWYLQKPGQSPQLLIYKVSNRFSGVPDRFSGSGSGTDFTLKISRVEAEDVGVYYCFQGSLLPWTFGQGTKVEIK |  |  |  |  |  |  | striking benefits
